Source: US12629363B2, “Prophylaxis and treatment of angioedema” (PHARVARIS GMBH, priority 2020, dated 2026)
Where two headings read alike, the source gives them in different places.

Assays:
[1] = Population 2-compartment PK model with oral absorption (BK challenge study); type: in vivo, human; settings: population PK model parameter estimate (CV %)
Experimental: A PK/PD analysis using the same approach as in the icatibant evaluation was conducted. […] PK was analyzed using a two-compartment body model with first-order oral absorption and a lag time; results are shown in Table 4. For the PK/PD model a simple Emax-model with a direct link was utilized. The PK/PD model was used to simulate PK profiles (N=1000) and calculate probability of durations of effect as well as to visualize effect-time profiles; see FIGS. 4 and 5.

[2] = Drug-drug interaction trial with itraconazole, safety and tolerability (Example 5); type: in vivo, human; settings: single 12 mg oral doses on Day 1 and Day 7 (with itraconazole)
Description: Thirteen healthy subjects were enrolled and completed the study.

rat B2 receptor = target: T1, rat B2 receptor (Rattus norvegicus, UniProt P25023); assay: Antagonist potency in cells expressing rat B2 receptor; type: cell-based; settings: compared with human B2 receptor
T1 construct: expressed in transfected cells
T1 sequence (P25023 1-396): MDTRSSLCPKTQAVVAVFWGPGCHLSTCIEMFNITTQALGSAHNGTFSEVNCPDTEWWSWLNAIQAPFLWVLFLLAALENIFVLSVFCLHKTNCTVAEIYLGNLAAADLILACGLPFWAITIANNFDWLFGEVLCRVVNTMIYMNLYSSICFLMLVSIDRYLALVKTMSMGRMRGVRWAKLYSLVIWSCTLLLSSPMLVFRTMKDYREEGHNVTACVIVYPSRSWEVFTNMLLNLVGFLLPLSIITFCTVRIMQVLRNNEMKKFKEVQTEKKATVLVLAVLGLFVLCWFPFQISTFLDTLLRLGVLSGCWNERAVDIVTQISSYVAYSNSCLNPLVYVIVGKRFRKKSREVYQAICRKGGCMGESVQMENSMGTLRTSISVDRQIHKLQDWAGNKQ
Description: (§1) The bradykinin B2 receptor is well known for its species selective pharmacology (Paquet et al., Br. J. Pharmacol. (126), 1083-1090, 1999 (DOI: 10.1038/sj.bjp.0702403); Burgess et al., Br. J. Pharmacol. (129), 77-86, 2000 (DOI: 10.1038/sj.bjp.0703012)). […] Pharmacol. 11:916; DOI: 10.3389/fphar.2020.00916.

human B2 receptor = target: T2, human B2 receptor (Homo sapiens, UniProt P30411); assay: Antagonist potency in cells expressing human B2 receptor; type: cell-based
T2 sequence (P30411 1-391): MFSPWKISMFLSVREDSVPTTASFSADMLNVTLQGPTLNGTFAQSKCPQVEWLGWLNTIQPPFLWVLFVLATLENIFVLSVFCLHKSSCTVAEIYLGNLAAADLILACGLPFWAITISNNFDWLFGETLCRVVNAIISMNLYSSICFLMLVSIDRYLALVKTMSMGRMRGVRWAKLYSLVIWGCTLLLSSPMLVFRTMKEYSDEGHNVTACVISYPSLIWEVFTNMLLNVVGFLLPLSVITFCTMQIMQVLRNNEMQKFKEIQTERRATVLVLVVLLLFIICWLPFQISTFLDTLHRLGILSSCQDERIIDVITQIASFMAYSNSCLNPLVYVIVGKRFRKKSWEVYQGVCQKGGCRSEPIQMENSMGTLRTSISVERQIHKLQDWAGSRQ
Description: as §1

[3] = Single ascending dose study in healthy volunteers, plasma PK (Example 2); type: in vivo, human; settings: for concentration at 0.25 h: read-out: C0.25h; for Vd/F: read-out: Vz/F
Plasma protein binding = type: in vitro ADME; settings: human
mouse B2 receptor = target: T3, mouse B2 receptor (Mus musculus, UniProt P32299); assay: Antagonist potency in cells expressing mouse B2 receptor; type: cell-based; settings: compared with human B2 receptor
T3 construct: expressed in transfected cells
T3 sequence (P32299 1-392): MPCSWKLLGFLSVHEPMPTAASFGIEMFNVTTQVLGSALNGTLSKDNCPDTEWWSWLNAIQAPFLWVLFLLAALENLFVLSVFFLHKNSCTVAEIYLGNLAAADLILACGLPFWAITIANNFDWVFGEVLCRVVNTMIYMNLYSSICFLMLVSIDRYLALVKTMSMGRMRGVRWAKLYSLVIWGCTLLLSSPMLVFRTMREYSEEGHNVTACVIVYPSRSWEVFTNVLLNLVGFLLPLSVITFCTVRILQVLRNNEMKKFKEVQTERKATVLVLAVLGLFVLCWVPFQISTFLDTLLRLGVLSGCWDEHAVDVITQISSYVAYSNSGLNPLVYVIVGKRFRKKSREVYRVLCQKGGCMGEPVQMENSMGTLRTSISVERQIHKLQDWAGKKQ
Description: as §1

[4] = 22 mg, HCHF breakfast vs fasted
[5] = human, plasma, oral, 1 mg, fasted, mean
[6] = human, plasma, oral, 2 mg, fasted, mean
[7] = human, plasma, oral, 4.5 mg, fasted, mean
[8] = human, plasma, oral, 12 mg, fasted, mean
[9] = human, plasma, oral, 22 mg, after HCHF breakfast, mean
[10] = human, plasma, oral, 22 mg, fasted, mean

For `[2H][C@@](C)(NC(=O)COC(F)F)c1cc(F)cc(Cl)c1COc1cccc2c(-c3ncnn3C)cc(C)nc12` [compound of formula (I)], the CL/F apparent clearance [1] was 34.5 (5.9%) L/h, the “Ka first order absorption rate constant” value [1] was 7.97 (25.1%) 1/h and the “Q/F apparent inter-compartmental clearance” value [1] was 10.7 (15.8%) L/h. For the same molecule, the Tlag lag time [1] was 0.181 (9.9%) h, the “V2/F apparent volume for the central compartment” value [1] was 101 (4.5%) L and the “V3/F apparent volume for the peripheral compartment” value [1] was 35.9 (10.7%) L. For the same molecule, the tolerability [2] was “well tolerated with no related adverse events reported”, the “fold less potent in antagonizing the rat B2 receptor” value (rat B2 receptor) was “more than 1000 fold” and the “times more potent at human B2 receptor than icatibant” value (human B2 receptor) was “about 20 times”. For the same molecule, the intrinsic agonist activity (human B2 receptor; B2 receptor) was “devoid of intrinsic agonist activity”, the Kb (human B2 receptor; human B2 receptor, read-out: Kb value to antagonize BK activation) was 0.15 nM and the “antagonist potency at recombinant human B2 receptors” value (human B2 receptor; recombinant) was 0.15 nM. For the same molecule, the CL/F ([3]; 1 mg, fasted, mean) was 42.3 L/h, the CL/F ([3]; 2 mg, fasted, mean) was 33.8 L/h and the CL/F ([3]; 4.5 mg, fasted, mean) was 37.6 L/h. The CL/F ([3]; 12 mg, fasted, mean) was 40.9 L/h, the “time therapeutically effective plasma levels maintained” value ([3]; 22 mg, HCHF breakfast cohort) was “more than 12 h” and the “time to reach therapeutically effective plasma levels” value ([3]; 22 mg, HCHF breakfast cohort) was no more than 15 min. The “higher AUClast after HCHF breakfast” value [3, 4] was 49%, the “lower Cmax after HCHF breakfast” value [3, 4] was 32% and the CL/F ([3]; 22 mg, after HCHF breakfast, mean) was 25.3 L/h. The Mean (±SD) C12h ([3]; 22 mg, fasted) was 8.34 ± 4.24 ng/mL, the Mean C24h ([3]; 22 mg, fasted) was 1.12 ± 0.786 ng/mL and the CL/F ([3]; 22 mg, fasted, mean) was 31.5 L/h. For the same molecule, the “time to reach therapeutic efficacious threshold plasma concentration” value ([3]; all doses) was no more than 15 min, the “time plasma levels maintained at therapeutic efficacious threshold” value ([3]; doses of 12 mg and 22 mg) was “approximately 12 h” and the Tmax ([3]; human, plasma, oral, 1 mg to 22 mg, fasting, read-out: Median tmax in the dose range) was 0.5 to 1 h. It also gave a Tmax ([3]; human, plasma, oral, 1 mg to 22 mg, fasting, read-out: range of individual tmax values) of 0.25 to 1.02 h, an AUC(0-t) [3, 5] of 33 ng·h/mL and a Cmax [3, 5] of 11.1 ng/mL. The concentration at 0.25 h [3, 5] was 5.99 ng/mL, the concentration at 12 h ([3]; human, plasma, oral, 1 mg, fasted, mean, read-out: C12h) was 0.528 ng/mL and the Vd/F [3, 5] was 190 L. For the same molecule, the half-life ([3]; human, plasma, oral, 1 mg, fasted, mean, read-out: t1/2 (converted)) was 3.49 h, the Tmax ([3]; human, plasma, oral, 1 mg, fasted, median, read-out: tmax) was 0.5 h and the AUC(0-t) [3, 6] was 66 ng·h/mL. For the same molecule, the Cmax [3, 6] was 19.8 ng/mL, the concentration at 0.25 h [3, 6] was 12.9 ng/mL and the concentration at 12 h ([3]; human, plasma, oral, 2 mg, fasted, mean, read-out: C12h) was 0.81 ng/mL. It also gave a Vd/F [3, 6] of 181 L, a half-life ([3]; human, plasma, oral, 2 mg, fasted, mean, read-out: t1/2 (converted)) of 4.26 h and a Tmax ([3]; human, plasma, oral, 2 mg, fasted, median, read-out: tmax) of 0.75 h. For the same molecule, the AUC(0-t) [3, 7] was 129 ng·h/mL, the Cmax [3, 7] was 32.9 ng/mL and the concentration at 0.25 h [3, 7] was 13 ng/mL. For the same molecule, the concentration at 12 h ([3]; human, plasma, oral, 4.5 mg, fasted, mean, read-out: C12h) was 1.93 ng/mL, the Vd/F [3, 7] was 222 L and the half-life ([3]; human, plasma, oral, 4.5 mg, fasted, mean, read-out: t1/2 (converted)) was 4.36 h. The Tmax ([3]; human, plasma, oral, 4.5 mg, fasted, median, read-out: tmax) was 1 h, the AUC(0-t) [3, 8] was 369 ng·h/mL and the Cmax [3, 8] was 97.3 ng/mL. For the same molecule, the concentration at 0.25 h [3, 8] was 60.3 ng/mL, the concentration at 12 h ([3]; human, plasma, oral, 12 mg, fasted, mean, read-out: C12h) was 5.58 ng/mL and the Vd/F [3, 8] was 235 L. The half-life ([3]; human, plasma, oral, 12 mg, fasted, mean, read-out: t1/2 (converted)) was 4.25 h, the Tmax ([3]; human, plasma, oral, 12 mg, fasted, median, read-out: tmax) was 0.5 h and the Tmax ([3]; human, plasma, oral, 22 mg, HCHF breakfast vs fasted, read-out: delay of median tmax after HCHF breakfast) was roughly 2 h. For the same molecule, the AUC(0-t) [3, 9] was 1020 ng·h/mL, the Cmax [3, 9] was 145 ng/mL and the concentration at 0.25 h [3, 9] was 48.3 ng/mL. The concentration at 12 h ([3]; human, plasma, oral, 22 mg, after HCHF breakfast, mean, read-out: C12h) was 19.6 ng/mL, the Vd/F [3, 9] was 180 L and the half-life ([3]; human, plasma, oral, 22 mg, after HCHF breakfast, mean, read-out: t1/2 (converted)) was 5.31 h. For the same molecule, the Tmax ([3]; human, plasma, oral, 22 mg, after HCHF breakfast, median, read-out: tmax) was 3 h, the AUC(0-t) [3, 10] was 681 ng·h/mL and the Cmax [3, 10] was 213 ng/mL. The concentration at 0.25 h [3, 10] was 143 ng/mL, the concentration at 12 h ([3]; human, plasma, oral, 22 mg, fasted, mean, read-out: C12h) was 8.34 ng/mL and the Vd/F [3, 10] was 252 L. It also gave a half-life ([3]; human, plasma, oral, 22 mg, fasted, mean, read-out: t1/2 (converted)) of 5.61 h, a Tmax ([3]; human, plasma, oral, 22 mg, fasted, median, read-out: tmax) of 0.75 h and a concentration at 12 h ([3]; human, plasma, oral, 22 mg, fed (HCHF breakfast), read-out: Mean (±SD) C12h) of 19.6 ± 10.7 ng/mL. For the same molecule, the concentration at 24 h ([3]; human, plasma, oral, 22 mg, fed (HCHF breakfast), read-out: Mean C24h) was 5.39 ± 5.47 ng/mL, the half-life ([3]; human, plasma, po, single oral doses 1-22 mg, read-out: mean t1/2 between doses) was 3.5 to 5.6 h and the “dose proportionality of PK (Cmax, AUClast, AUCinf)” value ([3]; single oral dose 1 mg to 22 mg, fasting) was “Dose proportional PK”. The fraction unbound (Plasma protein binding) was 0.038 and the “fold less potent towards the mouse B2 receptor” value (mouse B2 receptor) was “more than 3000 fold”.
